This note sets out measurements from PMC12586182 (Frontiers in Oncology, 2025).

What all share (assay): Kinase panel profiling at 1 µmol/L (mobility shift assay, Carna)
Holding throughout (assay type): biochemical
What all share (conditions): 1 µmol/L of BTK inhibitor

One assay addresses T1, ARG (Homo sapiens, UniProt P42684).
T1 construct: purchased Carna Biosciences

Another assay concerns the target T2, ITK (Homo sapiens, UniProt Q08881).
T2 construct: purchased Carna Biosciences
T2 sequence (Q08881 1-620): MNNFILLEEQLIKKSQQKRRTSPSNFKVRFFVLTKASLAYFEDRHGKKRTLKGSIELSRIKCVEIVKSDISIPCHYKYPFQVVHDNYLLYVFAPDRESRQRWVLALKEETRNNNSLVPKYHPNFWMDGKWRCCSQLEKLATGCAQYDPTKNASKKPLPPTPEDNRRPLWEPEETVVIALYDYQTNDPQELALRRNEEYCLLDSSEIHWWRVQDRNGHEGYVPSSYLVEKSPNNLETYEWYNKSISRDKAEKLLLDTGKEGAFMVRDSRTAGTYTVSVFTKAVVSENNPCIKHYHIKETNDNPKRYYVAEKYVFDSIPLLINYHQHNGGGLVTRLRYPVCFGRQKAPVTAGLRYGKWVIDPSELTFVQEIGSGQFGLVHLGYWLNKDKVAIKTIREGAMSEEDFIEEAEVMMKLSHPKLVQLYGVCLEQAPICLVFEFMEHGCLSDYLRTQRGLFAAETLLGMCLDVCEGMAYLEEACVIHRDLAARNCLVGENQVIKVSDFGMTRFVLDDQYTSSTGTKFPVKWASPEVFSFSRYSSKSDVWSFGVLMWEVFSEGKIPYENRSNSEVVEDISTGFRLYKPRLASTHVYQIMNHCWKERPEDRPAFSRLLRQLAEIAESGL

For a further assay, the target named is T3, PDGFRβ (Homo sapiens, UniProt P09619).
T3 construct: purchased Carna Biosciences

In a further assay the target is T4, CaMK2δ (Homo sapiens, UniProt Q13557).
T4 construct: purchased Carna Biosciences

The target in another assay is T5, HGK (Homo sapiens, UniProt O95819).
T5 construct: purchased Carna Biosciences

A further assay deals with T6, JNK3 (Homo sapiens, UniProt P53779).
T6 construct: purchased Carna Biosciences

The target in the next assay is T7, MAPKAPK5 (Homo sapiens, UniProt Q8IW41).
T7 construct: purchased Carna Biosciences
T7 sequence (Q8IW41 1-473): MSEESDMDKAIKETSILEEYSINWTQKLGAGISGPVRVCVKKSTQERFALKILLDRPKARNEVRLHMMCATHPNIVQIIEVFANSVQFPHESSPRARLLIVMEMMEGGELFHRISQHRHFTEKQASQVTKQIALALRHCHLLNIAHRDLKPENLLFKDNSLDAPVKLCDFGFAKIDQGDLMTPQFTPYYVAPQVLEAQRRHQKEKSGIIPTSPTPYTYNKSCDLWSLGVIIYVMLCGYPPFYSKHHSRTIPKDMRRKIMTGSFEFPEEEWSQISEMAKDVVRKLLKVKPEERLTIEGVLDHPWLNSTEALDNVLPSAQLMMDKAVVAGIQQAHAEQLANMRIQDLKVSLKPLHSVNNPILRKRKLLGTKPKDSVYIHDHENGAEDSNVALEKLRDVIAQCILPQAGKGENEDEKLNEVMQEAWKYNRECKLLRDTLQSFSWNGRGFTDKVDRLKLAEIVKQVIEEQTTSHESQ

The next assay has as its target T8, MRCKα (Homo sapiens, UniProt Q5VT25).
T8 construct: purchased Carna Biosciences

For a further assay, the target named is T9, NuaK2 (Homo sapiens, UniProt Q9H093).
T9 construct: purchased Carna Biosciences
T9 sequence (Q9H093 1-628): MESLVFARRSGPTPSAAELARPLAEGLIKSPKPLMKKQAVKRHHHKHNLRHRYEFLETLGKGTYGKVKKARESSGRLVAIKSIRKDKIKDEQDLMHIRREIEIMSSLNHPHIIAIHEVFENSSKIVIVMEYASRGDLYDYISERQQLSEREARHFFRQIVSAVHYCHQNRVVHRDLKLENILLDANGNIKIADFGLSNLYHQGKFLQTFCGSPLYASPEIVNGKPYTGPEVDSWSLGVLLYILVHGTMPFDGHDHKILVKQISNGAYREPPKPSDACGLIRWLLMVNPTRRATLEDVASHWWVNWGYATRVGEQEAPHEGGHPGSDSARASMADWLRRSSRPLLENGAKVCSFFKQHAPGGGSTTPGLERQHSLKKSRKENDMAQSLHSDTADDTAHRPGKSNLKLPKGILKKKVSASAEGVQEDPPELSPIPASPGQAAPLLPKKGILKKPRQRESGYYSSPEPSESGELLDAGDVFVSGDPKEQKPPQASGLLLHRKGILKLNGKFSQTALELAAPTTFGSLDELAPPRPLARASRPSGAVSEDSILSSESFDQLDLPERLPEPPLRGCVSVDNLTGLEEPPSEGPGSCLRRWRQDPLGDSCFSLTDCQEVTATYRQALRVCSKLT

The target of a further assay is T10, PAK6 (Homo sapiens, UniProt Q9NQU5).
T10 construct: purchased Carna Biosciences

A further assay deals with T11, PASK (Homo sapiens, UniProt Q96RG2).
T11 construct: purchased Carna Biosciences

Another assay deals with T12, PKCι (Homo sapiens, UniProt P41743).
T12 construct: purchased Carna Biosciences
T12 sequence (P41743 1-596): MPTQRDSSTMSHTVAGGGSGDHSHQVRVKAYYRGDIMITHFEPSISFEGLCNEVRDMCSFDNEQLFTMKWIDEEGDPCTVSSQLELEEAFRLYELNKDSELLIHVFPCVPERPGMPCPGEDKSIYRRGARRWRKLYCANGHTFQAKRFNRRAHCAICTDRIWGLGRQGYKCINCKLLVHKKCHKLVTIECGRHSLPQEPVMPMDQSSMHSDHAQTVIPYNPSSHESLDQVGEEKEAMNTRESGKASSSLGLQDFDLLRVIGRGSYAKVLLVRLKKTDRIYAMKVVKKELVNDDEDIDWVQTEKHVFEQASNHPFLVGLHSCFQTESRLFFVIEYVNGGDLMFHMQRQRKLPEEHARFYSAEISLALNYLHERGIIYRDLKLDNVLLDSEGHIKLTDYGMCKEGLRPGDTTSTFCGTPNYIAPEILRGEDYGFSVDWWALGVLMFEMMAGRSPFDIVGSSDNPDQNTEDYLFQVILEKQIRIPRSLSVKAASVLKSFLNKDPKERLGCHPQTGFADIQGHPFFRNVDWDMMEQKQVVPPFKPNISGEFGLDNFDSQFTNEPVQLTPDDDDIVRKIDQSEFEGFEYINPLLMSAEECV

T3 sequence (P09619 33-1106): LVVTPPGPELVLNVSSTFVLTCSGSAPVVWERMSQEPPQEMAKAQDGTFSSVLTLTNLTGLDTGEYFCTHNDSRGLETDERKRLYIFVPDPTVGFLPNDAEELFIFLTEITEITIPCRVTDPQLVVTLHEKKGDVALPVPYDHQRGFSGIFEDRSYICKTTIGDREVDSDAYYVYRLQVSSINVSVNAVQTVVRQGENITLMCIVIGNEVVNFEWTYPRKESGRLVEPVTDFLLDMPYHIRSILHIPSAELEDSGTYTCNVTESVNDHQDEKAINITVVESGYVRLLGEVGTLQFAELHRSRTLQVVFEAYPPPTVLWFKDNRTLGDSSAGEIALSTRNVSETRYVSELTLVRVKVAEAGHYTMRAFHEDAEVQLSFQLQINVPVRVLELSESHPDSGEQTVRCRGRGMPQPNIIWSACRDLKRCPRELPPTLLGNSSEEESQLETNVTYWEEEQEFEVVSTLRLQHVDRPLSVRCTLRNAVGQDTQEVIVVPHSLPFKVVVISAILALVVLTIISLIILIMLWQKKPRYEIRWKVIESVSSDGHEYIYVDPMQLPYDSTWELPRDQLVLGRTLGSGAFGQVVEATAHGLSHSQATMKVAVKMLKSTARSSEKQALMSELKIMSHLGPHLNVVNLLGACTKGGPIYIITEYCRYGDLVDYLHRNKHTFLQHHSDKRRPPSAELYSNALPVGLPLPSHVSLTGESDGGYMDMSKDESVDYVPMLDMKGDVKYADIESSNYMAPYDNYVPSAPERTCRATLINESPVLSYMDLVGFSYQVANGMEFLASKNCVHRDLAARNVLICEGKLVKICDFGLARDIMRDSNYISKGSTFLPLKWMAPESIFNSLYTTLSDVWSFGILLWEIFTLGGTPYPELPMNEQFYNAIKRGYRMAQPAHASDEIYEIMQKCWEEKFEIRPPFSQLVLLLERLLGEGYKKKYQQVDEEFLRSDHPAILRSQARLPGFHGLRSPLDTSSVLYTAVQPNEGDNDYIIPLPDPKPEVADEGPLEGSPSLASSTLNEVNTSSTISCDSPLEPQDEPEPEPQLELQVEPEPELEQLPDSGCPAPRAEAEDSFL
T11 sequence (Q96RG2 whole entry): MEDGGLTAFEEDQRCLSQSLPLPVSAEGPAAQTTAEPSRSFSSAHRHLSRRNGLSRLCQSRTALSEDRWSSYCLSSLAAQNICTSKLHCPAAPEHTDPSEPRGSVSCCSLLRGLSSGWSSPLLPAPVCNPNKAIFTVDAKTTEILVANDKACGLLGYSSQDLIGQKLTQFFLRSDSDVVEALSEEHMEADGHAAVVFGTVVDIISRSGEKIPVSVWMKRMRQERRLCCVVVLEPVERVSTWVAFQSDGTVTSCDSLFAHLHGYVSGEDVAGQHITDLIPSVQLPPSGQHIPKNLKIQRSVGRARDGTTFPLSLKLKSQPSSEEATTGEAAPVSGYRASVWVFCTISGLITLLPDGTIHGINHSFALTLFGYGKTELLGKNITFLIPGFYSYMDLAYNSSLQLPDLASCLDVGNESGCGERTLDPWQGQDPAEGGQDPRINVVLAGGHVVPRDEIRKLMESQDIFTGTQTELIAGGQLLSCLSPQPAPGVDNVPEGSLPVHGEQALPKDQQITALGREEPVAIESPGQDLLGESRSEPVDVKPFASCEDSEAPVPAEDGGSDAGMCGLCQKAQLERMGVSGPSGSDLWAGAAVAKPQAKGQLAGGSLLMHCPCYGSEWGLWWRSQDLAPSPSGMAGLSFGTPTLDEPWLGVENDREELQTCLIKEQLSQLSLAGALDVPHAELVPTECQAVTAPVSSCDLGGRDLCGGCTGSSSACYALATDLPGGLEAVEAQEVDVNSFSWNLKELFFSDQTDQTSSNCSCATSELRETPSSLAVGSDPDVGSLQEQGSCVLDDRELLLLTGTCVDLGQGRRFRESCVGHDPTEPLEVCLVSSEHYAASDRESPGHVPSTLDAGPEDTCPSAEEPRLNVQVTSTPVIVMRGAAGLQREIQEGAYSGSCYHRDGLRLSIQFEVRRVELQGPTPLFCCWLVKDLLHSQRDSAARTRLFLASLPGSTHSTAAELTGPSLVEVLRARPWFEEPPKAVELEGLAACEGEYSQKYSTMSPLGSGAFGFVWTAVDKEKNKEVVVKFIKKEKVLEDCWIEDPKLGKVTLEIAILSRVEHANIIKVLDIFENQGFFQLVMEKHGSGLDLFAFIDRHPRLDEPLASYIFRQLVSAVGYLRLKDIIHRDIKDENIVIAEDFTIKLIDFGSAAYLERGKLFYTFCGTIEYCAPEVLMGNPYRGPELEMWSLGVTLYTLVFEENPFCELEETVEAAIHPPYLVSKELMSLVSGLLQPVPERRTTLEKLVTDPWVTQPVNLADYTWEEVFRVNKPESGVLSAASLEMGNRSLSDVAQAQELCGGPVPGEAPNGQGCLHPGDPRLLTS
T10 sequence (Q9NQU5 whole entry): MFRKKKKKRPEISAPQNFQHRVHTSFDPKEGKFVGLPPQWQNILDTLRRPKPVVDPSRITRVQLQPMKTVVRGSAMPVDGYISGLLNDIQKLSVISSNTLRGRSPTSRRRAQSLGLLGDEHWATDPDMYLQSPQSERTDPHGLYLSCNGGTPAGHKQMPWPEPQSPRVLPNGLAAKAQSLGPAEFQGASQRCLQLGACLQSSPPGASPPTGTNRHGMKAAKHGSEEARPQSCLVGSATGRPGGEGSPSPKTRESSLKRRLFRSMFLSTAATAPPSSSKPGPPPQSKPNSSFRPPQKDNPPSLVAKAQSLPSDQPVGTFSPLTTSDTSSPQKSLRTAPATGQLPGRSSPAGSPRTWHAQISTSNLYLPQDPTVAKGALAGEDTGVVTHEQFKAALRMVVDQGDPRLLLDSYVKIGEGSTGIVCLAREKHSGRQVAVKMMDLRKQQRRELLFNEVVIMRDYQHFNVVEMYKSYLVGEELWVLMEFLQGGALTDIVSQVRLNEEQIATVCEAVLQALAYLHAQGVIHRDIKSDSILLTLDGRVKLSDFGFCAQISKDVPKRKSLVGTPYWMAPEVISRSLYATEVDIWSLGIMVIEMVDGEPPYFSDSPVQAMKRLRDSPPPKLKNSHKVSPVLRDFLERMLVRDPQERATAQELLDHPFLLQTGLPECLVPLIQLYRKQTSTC
T4 sequence (Q13557 whole entry): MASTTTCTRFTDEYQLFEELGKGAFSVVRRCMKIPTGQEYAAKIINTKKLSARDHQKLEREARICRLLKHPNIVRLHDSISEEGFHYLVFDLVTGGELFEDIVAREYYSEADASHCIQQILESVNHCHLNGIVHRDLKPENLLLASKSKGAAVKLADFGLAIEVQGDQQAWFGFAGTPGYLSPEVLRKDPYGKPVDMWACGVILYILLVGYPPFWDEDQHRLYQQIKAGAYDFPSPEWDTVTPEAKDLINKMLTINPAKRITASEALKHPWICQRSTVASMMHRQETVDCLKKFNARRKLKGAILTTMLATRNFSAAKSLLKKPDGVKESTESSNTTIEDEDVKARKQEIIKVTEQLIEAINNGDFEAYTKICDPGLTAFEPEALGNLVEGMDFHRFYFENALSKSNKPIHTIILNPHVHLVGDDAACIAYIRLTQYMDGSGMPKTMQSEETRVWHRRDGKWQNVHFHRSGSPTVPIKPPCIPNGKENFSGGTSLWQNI
T6 sequence (P53779 whole entry): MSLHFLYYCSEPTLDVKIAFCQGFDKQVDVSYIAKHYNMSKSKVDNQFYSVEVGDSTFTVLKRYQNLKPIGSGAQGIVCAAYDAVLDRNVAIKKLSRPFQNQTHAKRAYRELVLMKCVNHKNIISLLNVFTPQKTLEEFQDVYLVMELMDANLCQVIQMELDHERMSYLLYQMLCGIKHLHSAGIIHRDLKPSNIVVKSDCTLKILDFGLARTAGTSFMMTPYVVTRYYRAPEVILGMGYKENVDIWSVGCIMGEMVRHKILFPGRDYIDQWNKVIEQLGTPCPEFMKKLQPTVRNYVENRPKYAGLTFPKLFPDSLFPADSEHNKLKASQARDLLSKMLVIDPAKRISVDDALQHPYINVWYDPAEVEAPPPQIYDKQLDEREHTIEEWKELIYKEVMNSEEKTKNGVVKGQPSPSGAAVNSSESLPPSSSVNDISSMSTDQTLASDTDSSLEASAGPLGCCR

`CC#CC(=O)N1CCC[C@H]1c1nc(-c2ccc(C(=O)Nc3ccccn3)cc2)c2c(N)nccn12` [acalabrutinib]: the “Percentage inhibition of kinase enzyme activity” value (from here on “Percentage inhibition”) on ARG is 3.53%; on ITK it was 0.87%; at PDGFRβ, 5.36%; on CaMK2δ, -3.53%; on HGK, -1.42%; on JNK3, -0.89%. In addition, the “Percentage inhibition” value at MAPKAPK5 was -1.87%; on MRCKα, -7.47%; on NuaK2, 3.11%; at PAK6, -8.74%; on PASK it was -5.37%; on PKCι, -8.38%.
In the case of `COc1ccc(F)cc1C(=O)NCc1ccc(-c2nn([C@@H](C)C(F)(F)F)c(N)c2C(N)=O)cc1` [pirtobrutinib], the “Percentage inhibition” value is on record as -0.47% on ARG; 0.65% at ITK; 5.87% on PDGFRβ; -7.24% on CaMK2δ; 3.60% at HGK; 0.49% on JNK3. In addition, the “Percentage inhibition” value is recorded as -1.10% on MAPKAPK5; 0.63% at MRCKα; -0.23% on NuaK2; 4.12% on PAK6; 3.07% at PASK; 0.51% at PKCι.
Turning to `C=CC(=O)N1CCC[C@@H](n2nc(-c3ccc(Oc4ccccc4)cc3)c3c(N)ncnc32)C1` [ibrutinib], the “Percentage inhibition” value is 6.86% on ARG; 93.10% on ITK; 54.81% at PDGFRβ; -0.83% on CaMK2δ; -0.0249% at HGK; 0.98% on JNK3. The “Percentage inhibition” value was -2.44% at MAPKAPK5; -0.62% on MRCKα; 6.37% at NuaK2; 8.60% on PAK6; -0.0437% at PASK; 2.23% at PKCι.
On to `O=C(c1ccc(Oc2ccccc2)cc1Cl)c1c[nH]c2ncnc(N[C@@H]3CC[C@@H](CO)OC3)c12` [nemtabrutinib], for which the “Percentage inhibition” value is 62.68% on ARG; 8.66% on ITK; 76.83% on PDGFRβ; 14.10% at CaMK2δ; 72.78% at HGK; -2.93% on JNK3. Besides, the “Percentage inhibition” value is -2.46% on MAPKAPK5; 9.50% on MRCKα; 24.70% at NuaK2; 64.72% on PAK6; 21.76% on PASK; -1.29% at PKCι.
`C=CC(=O)N1CCC([C@@H]2CCNc3c(C(N)=O)c(-c4ccc(Oc5ccccc5)cc4)nn32)CC1` [zanubrutinib]: the “Percentage inhibition” value on ITK was -2.98%; on PDGFRβ, 5.37%.
